Measurements from PubChem BioAssay AID1117361 (Southern Research Institute, 2015).

Molecular target: Protein Tat (Human immunodeficiency virus type 1 group M subtype B (isolate HXB2)) (UniProt P04608)
Test: inhibitors of Tat binding to TAR RNA, dose response, counter-screen for Vif-APOBEC3G degradation inhibitor project, biochemical, fluorescence polarization, FAM-labeled TAR RNA (AID 1117361)

Chain of Protein Tat (Human immunodeficiency virus type 1 group M subtype B (isolate HXB2)) (P04608 whole entry, looked up): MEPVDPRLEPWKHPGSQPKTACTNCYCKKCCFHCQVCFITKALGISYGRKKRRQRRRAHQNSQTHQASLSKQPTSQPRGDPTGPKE

Row | Compound | IC50 [µM]
1 | CC(=O)c1ccc(NC(=O)c2ccc3nc(-c4ccco4)c(-c4ccco4)nc3c2)cc1 | 7.73
2 | O=C(NCCc1ccccc1)c1ccc2nc(-c3ccco3)c(-c3ccco3)nc2c1 | 33.1
3 | Cc1nc2cc(-c3ccsc3-n3c(C)ccc3C)[nH]n2c(=O)c1Cl | 2.17
4 | O=C(/C=C/c1cccs1)Nc1ccc(Br)cn1 | 31.4
5 | Cc1cc(C(=O)NCCCN2CCCC2=O)no1 | 24
6 | CCC(C)C(NC(=O)[C@@H](NC(=O)c1ccccc1F)C(C)C)C(=O)OC (some centres undefined) | 30.7
7 | O=C(CC1C(=O)NCCN1Cc1ccc(F)cc1)NCCN1CCCc2ccccc21 (centres undefined) | 22.1
8 | O=C(C1CCCO1)N1CCC2(CC1)OCCO2 (centres undefined) | 5.55
9 | CCN1C[C@@H]2[C@@H]3C(=O)N(Cc4ccccc4)C(=O)[C@@H]3[C@](C)(C(=O)OC)N2C1=NC1CCCCC1 | 79.8
10 | COc1cc2c(cc1N)-c1ccc(N)cc1C2 | 2.51
11 | Cc1ccc(S(=O)(=O)N2CCC(C(=O)Nc3nnc(-c4ccco4)s3)CC2)cc1 | 51.1
12 | CC(=O)Nc1ccc(S(=O)(=O)Nc2nc3ccccc3nc2Nc2ccc(N)cc2)cc1 | 43.3
13 | COc1cc(/C=C/C=C2/CC/C(=C/C=C/c3ccc(O)c(OC)c3)C2=O)ccc1O | 44.8
14 | CCN1C(=O)/C(=C\c2ccco2)C(C(=O)OC)=C1C | 81.8
15 | CCOC(=O)C1=C(N)n2c(s/c(=C\c3ccco3)c2=O)=C(C(=O)OC(C)C)C1c1ccco1 (centres undefined) | 3.45
16 | CSc1ccc(/C=N/Nc2cccc(C(=O)O)c2)cc1 | 5.81
17 | Cn1cnnc1SCC(=O)Nc1ncc([N+](=O)[O-])s1 | 58.2
18 | N#CC1=C(N)C2=C(N3CCCCC3)CCCC2C1(C#N)C#N (centres undefined) | 5.45
19 | CCCCn1c(=NC(=O)c2cccnc2)c(C#N)cc2c(=O)n3cccc(C)c3nc21 | 4.74
20 | C=CCN=c1scc(-c2ccco2)n1/N=C/c1ccc(O)c(O)c1O | 35.4
21 | O=c1c2cc(N3CCOCC3)ccc2[nH]c(=S)n1Cc1ccco1 | 38.7
22 | CNCc1ccccc1Sc1cc(O)ccc1O | 17.5
23 | CC[n+]1ccc(C)c2cc(P(=O)(c3ccccc3)c3ccccc3)ccc21 | 72.9

Row | Compound | IC50 [µM]
24 | CCC1C/C(=C/c2ccco2)C(=O)/C(=C/c2ccco2)C1 (centres undefined) | 12.6
25 | O=C(N/N=C/C=C/c1ccco1)c1ccncc1 | 10.2
26 | O=C(O)C1Nc2c(C(=O)N3CCOCC3)cccc2C2C=CCC12 (centres undefined) | 8.99
27 | CCC(=O)NNc1ncnc2ccccc12 | 44.5
28 | COc1cccc(NC(=O)CSc2nnc(-c3ccco3)c(-c3ccco3)n2)c1 | 69.3
29 | COC(=O)c1ccc(=O)c2nc3/c(=C/O)c(O)cc(=O)c3[nH]c12 | 20.3
30 | Cc1ccc(-n2nc(C)c(C3C(C#N)=C(N)Oc4c3c(=O)oc3ccccc43)c2Cl)cc1 (centres undefined) | 25.2
31 | COC/C=C/C1=CC2=CC(=O)C(C)(OC(=O)c3ccco3)C(=O)C2=CO1 (centres undefined) | 7.47
32 | CCOc1cccc(OCC)c2c(C)[n+](CC3CCCO3)c(C)c1-2 (centres undefined) | 4.16
33 | O=C1N=C(N2CCN(c3ccccc3)CC2)S/C1=C\c1ccco1 | 11.9
34 | O=C1C=Cc2ccccc2C1=O | 30.5
35 | Cc1cc(C)nc(N/N=C/C2=C(N3CCOCC3)C(=C\c3ccc(Cl)cc3)/CC2)n1 | 72.4
36 | O=C(Cc1cc(=O)[nH][nH]1)N/N=C/C=C/c1ccccc1 | 43.1
37 | Cc1ccc(C(=O)C2=C(O)C(=O)N(c3ncccn3)C2c2ccc(F)cc2)o1 (centres undefined) | 82.7
38 | NS(=O)(=O)c1ccc(N=Nc2c[nH]c(=O)c(O)c2)cc1 | 9.47
39 | CC(=O)c1ccc2c(c1)C1C=CCC1C(c1ccncc1)N2 (centres undefined) | 36.6
40 | Cc1c(Br)c(O)c(Br)c2sc(=O)oc12 | 25.3
41 | C=C(C)C(=O)Nc1cccc(C2=NOC3(C2)C[C@H](C(N)=O)N(C(=O)COc2ccc(Cl)cc2)C3)c1 (some centres undefined) | 17.3
42 | O=C1CC(c2ccco2)CC(O)=C1C=Nc1ccc(Br)cc1 (centres undefined) | 77.6
43 | CCOC(=O)c1sc2nc(CC(=O)OC)nc(NCc3ccco3)c2c1C | 16.1
44 | O=S(=O)(O)c1cc(O)c2cc(Nc3ccccc3)ccc2c1 | 20.5
45 | Cc1sc2ncnc(SCc3ccco3)c2c1C | 17.6
46 | COc1ccc(N=C2NC(=O)/C(=C\C=C\c3ccco3)S2)cc1 | 6.32

Row | Compound | IC50 [µM]
47 | CCc1ccccc1NC(=O)c1cccc(NC(=O)/C=C/c2ccco2)c1 | 26.6
48 | CC1=C(C(=O)Nc2ccccc2F)C(c2ccsc2)C2=C(CC(c3ccccc3)CC2=O)N1 (centres undefined) | 4.06
49 | C(=C\c1ccco1)/C=N/n1cnnc1 | 10.4
50 | O=C(O)/C(=C/c1ccco1)NC(=O)c1ccccc1 | 15.3
51 | NC1=NC(=O)/C(=C\c2ccco2)S1 | 6.09
52 | CCNc1ccc(Br)cc(C(=O)/C=C/c2ccc(Cl)cc2)c1=O | 12.5
53 | O=C(CN1CCN(S(=O)(=O)c2ccc(Cl)cc2)CC1)Nc1ccc2c(c1)OCCO2 | 1.31
54 | Cc1ccc(C)n1-c1ccc(-c2nnc3n2CCCCC3)s1 | 54.2
55 | COc1ccccc1NCCC(=O)OCC(=O)NCc1ccco1 | 58
56 | O=C(O)CC(C(=O)O)N1C(=O)/C(=C/C=C/c2ccco2)SC1=S (centres undefined) | 1.33
57 | CC(C)Cn1c(SCC(=O)NC(=O)Nc2ccc3c(c2)OCCO3)nc2ccccc2c1=O | 1.62
58 | O=C1CCCC/C1=C/Nc1ccc2c(c1)OCO2 | 41.3
59 | O=C1NN(c2ccc(Cl)cc2)C(=O)/C1=C\c1ccc(-c2cccc(C(=O)O)c2)o1 | 23.4
60 | COc1cc(-c2cccs2)cc(=O)c2c(C)oc(C)c12 | 22.7
61 | O=[N+]([O-])c1cc(CN2CCCC2)c2cccnc2c1O | 8.94
62 | Cc1c(N=C2C=C(Br)C(=O)C(Br)=C2)c(=O)n(-c2ccccc2)n1C | 11
63 | COc1ccccc1C1C=C(c2ccc(C)cc2)Nc2nnnn21 (centres undefined) | 84.4
64 | Oc1cc2c(cc1O)[C@H]1c3ccc(O)c(O)c3OC[C@@]1(O)C2 | 15.7
65 | Cc1cccc(NC(=O)CNC(=O)c2cccc(-n3cccc3)c2)c1C | 63.3
66 | Cc1nn(-c2ccccc2)c2sc(C(=O)N3CCc4ccccc4C3)cc12 | 40.1
67 | Cc1[nH]c2c(Cl)cccc2c(=O)c1CN1CCCC1 | 78.3
68 | O=C(Nc1ccn(-c2ccccc2)n1)c1ccccc1Br | 30.2
69 | O=C(O)CSc1c2c(nc3cc(C(=O)Nc4cccc(C(F)(F)F)c4)ccc13)CCC2 | 56.2

Row | Compound | IC50 [µM]
70 | CCCOc1ccc(Cc2nn3c(=O)/c(=C/c4ccco4)sc3nc2=O)cc1 | 2.68
71 | CC1(OC(=O)CCc2ccccc2)C(=O)C=C2C=C(c3ccsc3)OC=C2C1=O (centres undefined) | 65.8
72 | Cc1cccc(/C=C(\C(=O)O)c2ccc(S(=O)(=O)N3CCCC3)s2)c1 | 98
73 | O=C1CCCC(O)=C1N=Nc1ccc(S(=O)(=O)N2CCOCC2)cc1 | 37.6
74 | C=CCn1c(C)cc(-c2csc(N)n2)c1C | 5.49
75 | Nc1c(C(=O)NC2CC2)sc2nc3c(c(-c4ccco4)c12)CC/C3=C/c1ccco1 | 0.937
76 | COCCNC(=O)Nc1ccc2nc(-c3ccco3)c(-c3ccco3)nc2c1 | 2.17
77 | O=C1/C(=C\c2ccco2)SC(=S)N1c1ccccc1 | 9.64
78 | COC(=O)c1cnn2c(C(F)(F)F)cc(-c3ccco3)nc12 | 68.1
79 | Cn1c(N)c(C(=O)COC(=O)C2CCCCC2)c(=O)n(C)c1=O | 76.2
80 | c1coc(-c2nc(-c3ccco3)c(-c3ccco3)nc2-c2ccco2)c1 | 2.19
81 | Cc1cc(C)c(S(=O)(=O)N2CCCCC2)c(C)c1N(C)S(=O)(=O)c1ccc(Cl)cc1 | 29
82 | COC1=C(N)C(=O)c2nc(-c3nc(C(=O)O)c(C)c(-c4ccc(OC)c(OC)c4O)c3N)ccc2C1=O | 42.1
83 | CCOC(=O)c1cnn2c(N)c(C#N)nnc12 | 45.7
84 | CC(C)C1Nc2ccc(C(=O)O)cc2C2C=CCC21 (centres undefined) | 4.93
85 | O=C(NCC1CCCO1)c1cc(-c2ccco2)nc2ccccc12 (centres undefined) | 49.5
86 | O=C(O)C1Nc2c(Cl)cc(Cl)c(Cl)c2C2C=CCC12 (centres undefined) | 45.9
87 | O=C1S/C(=C\C=C\c2ccco2)C(=O)N1c1ccc(O)cc1 | 2
88 | NN=C1C(Cl)=C(Cl)C(Cl)=C1Cl | 62.9
89 | CCc1cc(=O)oc2cc(C)c(CN3CCCC3)c(O)c12 | 5.84
90 | CN(C)[C@@H]1C(=O)C(C(=O)NCN2CCCC2)=C(O)[C@@]2(O)C(=O)C3=C(O)c4c(O)cccc4[C@@](C)(O)C3CC12 (some centres undefined) | 2.46
91 | CCn1cc(Br)c(C(=O)Nc2cccc(SC)c2)n1 | 1.44
92 | COc1ccc(NC(=O)/C(C#N)=C\c2ccc(Br)o2)cc1 | 60.8

Row | Compound | IC50 [µM]
93 | COC(=O)c1ccccc1-c1c2ccc(=N)cc-2oc2cc(N)ccc12 | < 0.19
94 | COc1cccc2c1NC(C(=O)O)C1CC=CC21 (centres undefined) | 1.87
95 | CNc1cccccc1=S | 4.41
96 | Cc1cc(C)cc(NC(=O)CSc2nc3c(c(=O)n2C)SC(C)C3)c1 (centres undefined) | 56.9
97 | COc1cc(C(=O)NCC(c2ccco2)N2CCCC2)ccc1OCc1c(C)noc1C (centres undefined) | 93.5
98 | O=c1[nH]c(=S)[nH]c2c1C(c1ccc(Br)cc1)c1c([nH]c(=S)[nH]c1=O)O2 | 2.72
99 | CC1=CC(=Nc2c(C)n(C)n(-c3ccccc3)c2=O)C=CC1=O | 14.5
100 | C=CCN1C(=O)/C(=C\c2ccco2)C(C(=O)OC)=C1C | 45.9
101 | COc1cccc(NS(=O)(=O)c2ccc3c(c2)C2C=CCC2C(c2ccc(C(=O)O)cc2)N3)c1 (centres undefined) | 3.59
102 | Cc1cc(/C=N/Nc2ccc([N+](=O)[O-])cn2)c(C)n1-c1ccc(C(=O)O)cc1 | 5.58
103 | O=C1NC(=O)N(Cc2ccco2)C(=O)/C1=C/C=C/c1ccco1 | 1.95
104 | O=C(NCc1ccccc1Cl)c1csc2c1CCCCC2 | 27.2
105 | N#Cc1c(NC(=O)CSc2ncnc3sccc23)oc(-c2ccco2)c1-c1ccco1 | 2.52
106 | C=C(C)C(=O)Nc1cccc(C2=NOC3(C2)C[C@@H](C(N)=O)N(C(=O)CC(c2ccccc2)c2ccccc2)C3)c1 (some centres undefined) | 29.3
107 | C=C(C)C(=O)Nc1cccc(C2=NOC3(C2)C[C@@H](C(N)=O)N(C(=O)c2cc([N+](=O)[O-])cc([N+](=O)[O-])c2)C3)c1 (some centres undefined) | 52.9
108 | N#CC1=C(N)OC2=C(CCC/C2=C/c2ccoc2)C1c1ccoc1 (centres undefined) | 7.35
109 | O=C(O)c1ccc(COc2c(F)c(F)c(F)c(F)c2F)o1 | 90.6
110 | Cc1cc(C(=O)O)ccc1-n1c(C)ccc1C | 5.78
111 | O=C(CCN1C(=O)/C(=C/c2cccs2)SC1=S)NC1=NCCS1 | 46
112 | O=C(Nc1ccc(Cl)cc1)Nc1ccc(N2CCC(C(F)(F)F)CC2)nc1 | 32.5
113 | CN(C)c1ccc(N2C(=O)CSC2=S)cc1 | 54.6
114 | CC(/C=N/n1c(-c2ccncc2)n[nH]c1=S)=C\c1ccco1 | 8.22
